A short description of the data set: Solubility of TMB in different solvents. The format is physicochemical. The text has this: The following Table 1 presents results regarding the solubility of TMB in different solvents.

From US9547000B2, “Chromogenic absorbent material for animal litter and related chromogenic solution” (7905122 CANADA INC., priority 2012, dated 2017) come the findings set out here.

Values after ≈ are worked out from the molar mass of the structure shown.

On to `Cc1cc(-c2cc(C)c(N)c(C)c2)cc(C)c1N` [TMB, 3,3′,5,5′-tetramethylbenzidine], for which the solubility was found to be 1.6 mM (≈ 385 µg/mL) (organic solvent or mixture, solvent Dimethylsulfonamide); 10 mM (≈ 2400 µg/mL) (organic solvent or mixture, solvent Ethyl acetate); 5.2 mM (≈ 1250 µg/mL) (organic solvent or mixture, solvent Methanol); 0.1 mM (≈ 24 µg/mL) (water, solvent Water).

For orientation: solubility means the concentration that dissolves in the medium under given conditions.
